Among the data in publication PMC10824666 (Nature Cancer, 2023) are remaining activity values, retold here.

SMILES strings stand for the structures. Like-named read-outs stand apart in the source and are kept apart here.

Common to all, as to assay: biochemical
Holding throughout (parameters): Eurofins DiscoverX kinase panel, competitive binding assay at 1 uM, percent of DMSO control
Conditions in all cases: competitive binding, percent of DMSO control

Experiment [1] addresses ALK (Homo sapiens, UniProt Q9UM73). In a few lines:
(§1)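 Single-point profiling at 1 µM compound in a competition-binding format against 96 kinases, read out as POC relative to control; n = 1.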

In experiment [2] the target is T1, DMPK (Homo sapiens, UniProt Q09013).
T1 sequence (Q09013 1-629): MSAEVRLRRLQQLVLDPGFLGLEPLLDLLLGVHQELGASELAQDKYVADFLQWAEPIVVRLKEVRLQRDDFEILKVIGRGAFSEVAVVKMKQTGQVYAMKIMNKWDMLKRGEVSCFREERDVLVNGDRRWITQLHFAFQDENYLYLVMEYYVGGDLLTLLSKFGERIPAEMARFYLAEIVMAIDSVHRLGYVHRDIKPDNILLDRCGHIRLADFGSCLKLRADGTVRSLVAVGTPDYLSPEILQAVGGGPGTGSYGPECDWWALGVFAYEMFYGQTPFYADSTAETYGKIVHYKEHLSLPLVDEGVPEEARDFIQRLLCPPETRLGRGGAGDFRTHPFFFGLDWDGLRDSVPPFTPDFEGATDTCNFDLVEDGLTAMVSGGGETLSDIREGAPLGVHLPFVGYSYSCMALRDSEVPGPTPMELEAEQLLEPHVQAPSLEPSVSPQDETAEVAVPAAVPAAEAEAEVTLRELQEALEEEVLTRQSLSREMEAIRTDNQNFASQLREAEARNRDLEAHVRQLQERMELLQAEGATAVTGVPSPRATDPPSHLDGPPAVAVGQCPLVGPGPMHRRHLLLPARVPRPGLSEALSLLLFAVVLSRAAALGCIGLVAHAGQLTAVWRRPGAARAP
In a few lines: as §1

Experiment [3] deals with T2, p38 α (Homo sapiens, UniProt Q16539).
T2 construct: gene MAPK14
T2 sequence (Q16539 whole entry): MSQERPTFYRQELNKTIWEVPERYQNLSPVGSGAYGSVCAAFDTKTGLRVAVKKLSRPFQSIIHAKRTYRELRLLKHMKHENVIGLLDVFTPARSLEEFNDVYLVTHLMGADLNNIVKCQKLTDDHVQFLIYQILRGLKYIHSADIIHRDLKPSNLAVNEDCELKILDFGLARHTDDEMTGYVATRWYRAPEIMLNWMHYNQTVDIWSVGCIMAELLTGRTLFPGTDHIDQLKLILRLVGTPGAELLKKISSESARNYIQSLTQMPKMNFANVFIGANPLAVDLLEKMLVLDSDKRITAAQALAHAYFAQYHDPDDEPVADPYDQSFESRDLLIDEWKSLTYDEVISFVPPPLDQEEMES
A digest of the protocol: as §1

For experiment [4], the target named is T3, MAP2K3 (Homo sapiens, UniProt P46734).
T3 sequence (P46734 1-347): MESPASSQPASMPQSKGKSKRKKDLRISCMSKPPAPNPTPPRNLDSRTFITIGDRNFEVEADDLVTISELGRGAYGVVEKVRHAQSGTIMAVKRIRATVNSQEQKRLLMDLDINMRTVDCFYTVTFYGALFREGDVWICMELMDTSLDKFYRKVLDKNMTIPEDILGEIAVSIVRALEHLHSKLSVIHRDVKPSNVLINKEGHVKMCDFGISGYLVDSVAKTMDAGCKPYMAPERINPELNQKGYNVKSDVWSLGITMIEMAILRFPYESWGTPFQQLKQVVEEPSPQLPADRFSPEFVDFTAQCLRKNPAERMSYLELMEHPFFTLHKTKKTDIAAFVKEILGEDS
In a few lines: as §1

Experiment [5] concerns the target T4, ERK2 (Homo sapiens, UniProt P28482).
T4 construct: gene MAPK1
A digest of the protocol: as §1

Experiment [6] concerns the target T5, Tyk-2 (Homo sapiens, UniProt P29597).
T5 construct: gene TYK2
A digest of the protocol:
as §1

Experiment [7] addresses JAK2 (Homo sapiens, UniProt O60674). In a few lines: as §1
Setting [8] is: read-out: Kinome Profiling performed by Eurofins DiscoverX / AM-0277, 1.0 µM / POC.
The mark [9] stands for this setting: read-out: Kinome Profiling performed by Eurofins DiscoverX / AM-1882, 1.0 µM / POC.
[10] abbreviates: read-out: Kinome Profiling performed by Eurofins DiscoverX / AM-5308, 1.0 µM / POC.

T4 sequence (P28482 whole entry): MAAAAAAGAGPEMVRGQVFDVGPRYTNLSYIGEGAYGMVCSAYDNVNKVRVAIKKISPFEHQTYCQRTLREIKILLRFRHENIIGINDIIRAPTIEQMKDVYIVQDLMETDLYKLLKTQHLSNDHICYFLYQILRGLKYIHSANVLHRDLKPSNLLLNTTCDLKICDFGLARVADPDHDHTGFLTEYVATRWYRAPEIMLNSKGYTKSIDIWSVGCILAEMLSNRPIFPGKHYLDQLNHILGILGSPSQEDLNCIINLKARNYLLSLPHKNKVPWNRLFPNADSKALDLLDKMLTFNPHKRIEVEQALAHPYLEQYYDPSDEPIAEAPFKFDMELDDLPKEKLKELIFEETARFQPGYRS
Sequence of ALK (Q9UM73 whole entry): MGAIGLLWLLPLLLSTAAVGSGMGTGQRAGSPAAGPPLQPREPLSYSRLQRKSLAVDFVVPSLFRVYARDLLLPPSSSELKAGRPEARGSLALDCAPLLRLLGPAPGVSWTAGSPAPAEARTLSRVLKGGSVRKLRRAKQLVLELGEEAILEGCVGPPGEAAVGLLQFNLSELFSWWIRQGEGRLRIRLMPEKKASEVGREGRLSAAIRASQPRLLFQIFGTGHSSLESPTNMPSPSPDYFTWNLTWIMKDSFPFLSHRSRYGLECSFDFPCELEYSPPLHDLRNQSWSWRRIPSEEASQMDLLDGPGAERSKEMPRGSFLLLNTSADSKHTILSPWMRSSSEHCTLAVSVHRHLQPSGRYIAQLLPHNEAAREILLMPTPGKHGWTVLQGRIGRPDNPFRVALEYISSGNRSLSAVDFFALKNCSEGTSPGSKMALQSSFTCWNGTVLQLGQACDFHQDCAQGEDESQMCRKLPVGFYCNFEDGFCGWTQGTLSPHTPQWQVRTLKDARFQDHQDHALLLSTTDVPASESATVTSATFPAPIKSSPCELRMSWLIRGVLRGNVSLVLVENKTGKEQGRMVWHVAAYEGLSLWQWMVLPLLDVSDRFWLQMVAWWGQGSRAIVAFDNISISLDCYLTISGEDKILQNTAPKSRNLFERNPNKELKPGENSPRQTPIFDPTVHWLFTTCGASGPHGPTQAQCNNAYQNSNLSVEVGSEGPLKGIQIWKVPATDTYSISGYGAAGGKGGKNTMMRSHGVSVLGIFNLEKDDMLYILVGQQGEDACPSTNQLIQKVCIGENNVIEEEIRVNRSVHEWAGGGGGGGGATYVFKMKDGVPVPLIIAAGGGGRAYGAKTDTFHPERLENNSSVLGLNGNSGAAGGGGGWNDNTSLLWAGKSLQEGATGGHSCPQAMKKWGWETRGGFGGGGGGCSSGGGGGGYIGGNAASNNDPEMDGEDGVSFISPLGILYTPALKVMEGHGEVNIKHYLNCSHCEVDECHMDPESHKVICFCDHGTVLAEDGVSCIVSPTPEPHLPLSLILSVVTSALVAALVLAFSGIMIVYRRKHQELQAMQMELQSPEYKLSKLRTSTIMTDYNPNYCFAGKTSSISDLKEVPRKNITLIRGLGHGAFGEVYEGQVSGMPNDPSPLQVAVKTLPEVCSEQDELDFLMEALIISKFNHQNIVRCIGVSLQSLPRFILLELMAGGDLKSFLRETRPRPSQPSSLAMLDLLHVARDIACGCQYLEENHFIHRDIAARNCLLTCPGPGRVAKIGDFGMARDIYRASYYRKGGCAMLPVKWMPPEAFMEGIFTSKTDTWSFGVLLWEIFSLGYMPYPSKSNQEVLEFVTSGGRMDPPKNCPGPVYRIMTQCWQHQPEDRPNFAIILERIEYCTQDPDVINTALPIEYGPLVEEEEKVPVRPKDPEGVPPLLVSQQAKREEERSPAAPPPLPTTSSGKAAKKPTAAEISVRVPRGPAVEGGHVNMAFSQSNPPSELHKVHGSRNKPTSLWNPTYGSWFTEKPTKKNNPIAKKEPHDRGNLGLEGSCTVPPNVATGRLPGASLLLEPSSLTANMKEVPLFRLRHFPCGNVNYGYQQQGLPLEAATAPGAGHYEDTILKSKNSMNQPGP
T5 sequence (P29597 whole entry): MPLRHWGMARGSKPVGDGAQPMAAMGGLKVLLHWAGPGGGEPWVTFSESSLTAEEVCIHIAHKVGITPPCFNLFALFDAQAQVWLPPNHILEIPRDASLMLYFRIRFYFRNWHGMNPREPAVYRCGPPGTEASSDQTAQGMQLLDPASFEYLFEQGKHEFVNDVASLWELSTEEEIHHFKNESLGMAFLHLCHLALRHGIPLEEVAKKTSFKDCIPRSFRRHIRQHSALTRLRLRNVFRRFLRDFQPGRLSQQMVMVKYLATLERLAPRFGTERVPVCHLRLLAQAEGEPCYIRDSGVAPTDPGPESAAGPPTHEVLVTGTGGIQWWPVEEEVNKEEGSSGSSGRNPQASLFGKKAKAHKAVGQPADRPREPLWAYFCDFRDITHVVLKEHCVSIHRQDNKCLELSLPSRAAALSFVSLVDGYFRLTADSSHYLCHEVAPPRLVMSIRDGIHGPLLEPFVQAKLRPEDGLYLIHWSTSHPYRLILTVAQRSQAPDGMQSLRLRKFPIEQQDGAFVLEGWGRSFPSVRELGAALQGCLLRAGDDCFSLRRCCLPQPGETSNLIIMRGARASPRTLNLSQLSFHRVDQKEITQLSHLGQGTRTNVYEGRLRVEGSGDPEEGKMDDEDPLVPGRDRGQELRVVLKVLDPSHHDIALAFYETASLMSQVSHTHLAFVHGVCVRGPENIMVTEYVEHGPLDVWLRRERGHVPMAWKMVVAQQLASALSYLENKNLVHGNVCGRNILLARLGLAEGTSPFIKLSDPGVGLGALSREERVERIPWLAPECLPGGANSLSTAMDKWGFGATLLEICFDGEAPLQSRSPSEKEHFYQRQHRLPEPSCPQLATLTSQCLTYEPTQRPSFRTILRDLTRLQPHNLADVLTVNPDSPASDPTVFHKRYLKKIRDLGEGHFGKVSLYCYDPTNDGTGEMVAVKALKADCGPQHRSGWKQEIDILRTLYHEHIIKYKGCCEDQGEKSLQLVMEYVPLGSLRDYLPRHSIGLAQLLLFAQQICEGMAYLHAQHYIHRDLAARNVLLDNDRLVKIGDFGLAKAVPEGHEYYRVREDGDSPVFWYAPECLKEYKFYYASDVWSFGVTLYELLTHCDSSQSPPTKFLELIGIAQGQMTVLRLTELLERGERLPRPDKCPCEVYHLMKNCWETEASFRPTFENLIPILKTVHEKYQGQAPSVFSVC
Sequence of JAK2 (O60674 whole entry): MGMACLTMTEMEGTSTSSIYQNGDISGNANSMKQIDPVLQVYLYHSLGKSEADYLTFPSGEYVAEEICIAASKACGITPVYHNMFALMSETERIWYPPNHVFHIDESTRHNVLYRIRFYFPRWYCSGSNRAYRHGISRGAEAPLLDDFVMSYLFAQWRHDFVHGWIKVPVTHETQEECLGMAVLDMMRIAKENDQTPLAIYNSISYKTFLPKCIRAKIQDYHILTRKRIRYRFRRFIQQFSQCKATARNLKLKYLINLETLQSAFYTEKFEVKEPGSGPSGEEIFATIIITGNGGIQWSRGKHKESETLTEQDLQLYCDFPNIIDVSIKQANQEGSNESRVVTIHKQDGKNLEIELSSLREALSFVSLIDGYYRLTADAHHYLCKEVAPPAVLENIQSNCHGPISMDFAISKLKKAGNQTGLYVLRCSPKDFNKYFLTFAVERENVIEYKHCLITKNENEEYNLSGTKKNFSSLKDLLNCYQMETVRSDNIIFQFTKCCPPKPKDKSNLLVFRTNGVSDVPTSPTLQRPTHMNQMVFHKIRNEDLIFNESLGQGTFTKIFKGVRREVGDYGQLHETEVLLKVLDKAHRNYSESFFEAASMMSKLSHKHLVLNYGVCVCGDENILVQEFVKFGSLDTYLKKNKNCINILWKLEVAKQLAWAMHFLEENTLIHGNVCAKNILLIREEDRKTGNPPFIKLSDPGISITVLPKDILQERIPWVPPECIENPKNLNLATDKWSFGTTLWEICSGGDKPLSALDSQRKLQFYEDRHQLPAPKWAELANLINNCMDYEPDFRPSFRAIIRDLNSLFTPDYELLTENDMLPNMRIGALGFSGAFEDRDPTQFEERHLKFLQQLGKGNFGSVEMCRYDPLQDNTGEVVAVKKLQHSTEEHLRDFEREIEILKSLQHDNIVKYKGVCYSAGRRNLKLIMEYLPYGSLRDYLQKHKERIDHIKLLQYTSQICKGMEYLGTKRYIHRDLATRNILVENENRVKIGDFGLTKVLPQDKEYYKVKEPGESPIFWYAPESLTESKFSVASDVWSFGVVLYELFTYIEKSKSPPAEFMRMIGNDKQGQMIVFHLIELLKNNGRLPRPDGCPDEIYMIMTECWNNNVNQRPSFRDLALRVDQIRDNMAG

Consider `CC(C)(CO)Nc1ccc(C(=O)Nc2cccc(S(=O)(=O)C3CCCC3)c2)c(N2CCC3(CC2)CC3)n1` [AM-0277], for which the remaining activity at 1 µM in experiment [1] (setting [8]) came out at 100%; in experiment [2] (setting [8]) it was 100%; in experiment [3] (setting [8]) it was 100%; in experiment [4] (setting [8]), 96%; in experiment [5] (setting [8]), 95%; in experiment [6] (setting [8]), 100%. Further, the remaining activity at 1 µM in experiment [7] (setting [8]) turned out to be 100%.
On to `CC(C)(C)NS(=O)(=O)c1cccc(NC(=O)c2ccc(S(=O)(=O)NC(C)(C)C)cc2N2CCC3(CC2)CC3)c1` [AM-1882], for which the remaining activity at 1 µM is 81% in experiment [1] (setting [9]); 99.5% in experiment [2] (setting [9]); 100% in experiment [3] (setting [9]); 67% in experiment [4] (setting [9]); 100% in experiment [5] (setting [9]); 100% in experiment [6] (setting [9]). Besides, in experiment [7] (setting [9]), the remaining activity at 1 µM was 100%.
Regarding `C[C@@H]1CN(c2cccc(NC(=O)c3ccc(NS(=O)(=O)CCO)cc3N3CCC4(CC3)CC4)n2)CCO1` [AM-5308], the remaining activity at 1 µM in experiment [1] (setting [10]) was determined as 89%; in experiment [2] (setting [10]), 92%; in experiment [3] (setting [10]) it was 89.5%; in experiment [4] (setting [10]) it was 88.5%; in experiment [5] (setting [10]) it was 89%; in experiment [6] (setting [10]) it was 84%. The remaining activity at 1 µM in experiment [7] (setting [10]) stood at 94.5%.
